ChEMBL document CHEMBL1143222, “Synthesis and in vitro activity of N'-cyano-4-(2-phenylacetyl)-N-o-tolylpiperazine-1-carboximidamide P2X7 antagonists” (Bioorg Med Chem Lett, 2008)
The source made the active and inactive calls. No cut-off for these calls is given here.

How the values were obtained:
[1] = target: T1, P2X purinoceptor 7 (Rattus norvegicus, UniProt Q64663); test: Antagonist activity at rat recombinant P2X7 receptor assessed as inhibition of calcium flux by FLIPR assay; assay type: functional
T1 sequence (Q64663 whole entry): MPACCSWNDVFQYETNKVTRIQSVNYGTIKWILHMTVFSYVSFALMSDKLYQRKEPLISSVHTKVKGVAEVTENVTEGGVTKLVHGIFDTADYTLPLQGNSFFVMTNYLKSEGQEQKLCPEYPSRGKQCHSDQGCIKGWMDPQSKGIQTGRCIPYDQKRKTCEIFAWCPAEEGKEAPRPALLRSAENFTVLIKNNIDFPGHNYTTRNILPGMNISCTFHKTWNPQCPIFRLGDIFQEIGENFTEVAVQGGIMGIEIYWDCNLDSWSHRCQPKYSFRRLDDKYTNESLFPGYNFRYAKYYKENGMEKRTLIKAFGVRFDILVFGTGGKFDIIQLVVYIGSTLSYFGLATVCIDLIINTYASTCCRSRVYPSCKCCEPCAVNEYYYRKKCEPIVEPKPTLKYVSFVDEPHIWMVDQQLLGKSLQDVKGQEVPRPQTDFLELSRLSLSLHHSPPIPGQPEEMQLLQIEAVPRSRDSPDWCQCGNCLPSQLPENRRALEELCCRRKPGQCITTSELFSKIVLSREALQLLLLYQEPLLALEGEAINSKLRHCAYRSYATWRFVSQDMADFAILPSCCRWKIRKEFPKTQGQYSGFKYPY

[2] = target: T2, P2X purinoceptor 7 (Homo sapiens, UniProt Q99572); test: Antagonist activity at human recombinant P2X7 receptor assessed as inhibition of calcium flux by FLIPR assay; assay type: functional
T2 sequence (Q99572 whole entry): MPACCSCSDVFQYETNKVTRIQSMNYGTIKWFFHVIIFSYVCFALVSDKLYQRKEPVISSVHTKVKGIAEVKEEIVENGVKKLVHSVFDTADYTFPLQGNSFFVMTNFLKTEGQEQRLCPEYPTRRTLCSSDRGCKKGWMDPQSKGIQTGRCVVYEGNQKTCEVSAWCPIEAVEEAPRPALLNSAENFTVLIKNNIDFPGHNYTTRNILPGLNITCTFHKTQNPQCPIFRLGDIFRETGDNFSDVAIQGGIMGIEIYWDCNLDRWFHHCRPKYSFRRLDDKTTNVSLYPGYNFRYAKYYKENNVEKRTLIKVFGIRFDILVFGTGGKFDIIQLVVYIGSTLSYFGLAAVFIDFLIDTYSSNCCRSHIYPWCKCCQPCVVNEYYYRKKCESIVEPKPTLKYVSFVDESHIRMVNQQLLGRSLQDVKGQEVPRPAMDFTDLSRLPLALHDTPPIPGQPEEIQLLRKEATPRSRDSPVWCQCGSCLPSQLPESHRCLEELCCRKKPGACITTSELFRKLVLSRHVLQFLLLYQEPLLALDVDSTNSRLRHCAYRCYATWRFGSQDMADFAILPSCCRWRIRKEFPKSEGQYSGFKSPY

[3] = Inhibition of P2X2/3 receptor at 10 uM
[4] = target: T3, P2X purinoceptor 3 (Homo sapiens) (UniProt P56373); test: Inhibition of P2X3 receptor at 10 uM
T3 sequence (whole entry): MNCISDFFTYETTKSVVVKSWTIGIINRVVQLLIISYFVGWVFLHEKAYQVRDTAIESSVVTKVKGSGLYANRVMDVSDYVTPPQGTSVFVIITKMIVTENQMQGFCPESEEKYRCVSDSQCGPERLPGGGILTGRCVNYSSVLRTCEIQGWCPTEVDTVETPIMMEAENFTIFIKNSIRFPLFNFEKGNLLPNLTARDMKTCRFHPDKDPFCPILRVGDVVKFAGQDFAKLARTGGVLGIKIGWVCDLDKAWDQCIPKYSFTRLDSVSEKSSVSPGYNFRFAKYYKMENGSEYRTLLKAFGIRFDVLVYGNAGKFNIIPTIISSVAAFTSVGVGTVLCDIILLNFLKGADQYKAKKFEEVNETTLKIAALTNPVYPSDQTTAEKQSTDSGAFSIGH

[5] = target: T4, P2X purinoceptor 4 (Homo sapiens) (UniProt Q99571); test: Inhibition of P2X4 receptor at 10 uM
T4 sequence (whole entry): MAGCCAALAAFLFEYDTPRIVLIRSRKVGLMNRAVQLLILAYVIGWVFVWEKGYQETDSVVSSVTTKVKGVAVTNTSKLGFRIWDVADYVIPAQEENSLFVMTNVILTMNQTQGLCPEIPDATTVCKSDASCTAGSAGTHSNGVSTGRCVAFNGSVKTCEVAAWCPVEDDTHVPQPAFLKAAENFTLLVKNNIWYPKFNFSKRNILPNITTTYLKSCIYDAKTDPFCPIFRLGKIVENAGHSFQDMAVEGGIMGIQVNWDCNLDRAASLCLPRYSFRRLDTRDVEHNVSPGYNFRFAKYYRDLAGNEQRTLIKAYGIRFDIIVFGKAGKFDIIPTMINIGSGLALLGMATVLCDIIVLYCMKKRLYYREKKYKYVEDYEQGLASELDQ

[6] = target: P2Y purinoceptor 2 (Homo sapiens) (UniProt P41231); test: Inhibition of P2Y2 receptor at 10 uM
Sequence of P2Y purinoceptor 2 (Homo sapiens) (P41231 whole entry): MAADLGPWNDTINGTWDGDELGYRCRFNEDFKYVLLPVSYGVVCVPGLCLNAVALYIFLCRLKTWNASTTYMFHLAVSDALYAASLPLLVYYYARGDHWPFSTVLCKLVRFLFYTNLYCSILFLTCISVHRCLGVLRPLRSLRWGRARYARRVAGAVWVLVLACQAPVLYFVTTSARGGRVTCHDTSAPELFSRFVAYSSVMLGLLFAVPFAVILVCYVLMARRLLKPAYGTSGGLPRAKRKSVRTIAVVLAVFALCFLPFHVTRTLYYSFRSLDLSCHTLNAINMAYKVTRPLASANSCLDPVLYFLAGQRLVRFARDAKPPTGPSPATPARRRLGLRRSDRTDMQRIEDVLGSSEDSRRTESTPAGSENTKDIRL

SMILES | IC50 [1] | IC50 [2] | also measured
COc1ccc(C(=O)N2CCN(C(=Nc3cccc4ncccc34)NC#N)CC2c2ccccc2)cc1OC (stereo unspecified) | 30 nM | 59 nM | –
Cc1ccccc1N=C(NC#N)N1CCN(C(=O)Cc2ccco2)C(c2ccccc2)C1 (stereo unspecified) | 520 nM | 110 nM | –
Cc1ccccc1N/C(=N\C#N)N1CCN(C(=O)CC23CC4CC(CC(C4)C2)C3)C(c2ccccc2)C1 (stereo unspecified) | 630 nM | 1500 nM | –
COc1ccc(CC(=O)N2CCN(C(=Nc3ccccc3C)NC#N)[C@H](C(C)C)C2)cc1OC | 16000 nM | 1300 nM | –
Cc1cc(CC(=O)N2CCN(C(=Nc3ccccc3C)NC#N)CC2c2ccccc2)on1 (stereo unspecified) | 170 nM | 46 nM | –
COc1ccc(C(=O)N2CCN(/C(=N/C#N)Nc3cccc4ncccc34)CC2c2ccccc2)cc1OC (stereo unspecified) | – | – | Activity [3]: inactive; Activity [4]: inactive; Activity [5]: inactive; Activity [6]: inactive
Cc1ccccc1N=C(NC#N)N1CCN(C(=O)Cc2ccccc2)C(c2ccccc2)C1 (stereo unspecified) | 380 nM | 88 nM | –
COc1ccc(CC(=O)NC(NC(=NC#N)Nc2ccccc2C)C(C)(C)C)cc1OC (stereo unspecified) | 14 nM | 120 nM | –
Cc1ccccc1N=C(NC#N)N1CCN(C(=O)Cc2ccncc2)C(c2ccccc2)C1 (stereo unspecified) | 150 nM | 36 nM | –
Cc1ccccc1N=C(NC#N)N1CCN(C(=O)Cc2ccc(Cl)cc2)C(c2ccccc2)C1 (stereo unspecified) | 110 nM | 140 nM | –
COc1ccc(CC(=O)N2CCN(C(=Nc3ccccc3C)NC#N)[C@H](CC(C)C)C2)cc1OC | 4500 nM | 430 nM | –
COc1ccc(CC(=O)NC(N/C(=N/C#N)Nc2cccc3ncccc23)C(C)(C)C)cc1OC (stereo unspecified) | – | 44 nM | –
COc1ccc(CC(=O)N2C(C)CN(C(=Nc3ccccc3C)NC#N)CC2C)cc1OC (cis isomer) | 19000 nM | 460 nM | –
Cc1ccccc1N/C(=N\C#N)N1CCN(C(=O)Cc2c[nH]cn2)C(c2ccccc2)C1 (stereo unspecified) | 14000 nM | 1000 nM | –
Cc1ccccc1N/C(=N\C#N)N1CCN(C(=O)Cc2c[nH]c3ccccc23)C(c2ccccc2)C1 (stereo unspecified) | 210 nM | 100 nM | –

Second part, led by results:

IC50 [1] | IC50 [2] | SMILES | also measured
390 nM | 40 nM | Cc1ccccc1N/C(=N\C#N)N1CCN(C(=O)Cc2cccnc2)C(c2ccccc2)C1 (stereo unspecified) | –
140 nM | 58 nM | COc1ccc(CC(=O)N2CCN(C(=Nc3ccccc3C)NC#N)CC2c2ccccc2)cc1OC (stereo in doubt; 26) | –
150 nM | 46 nM | Cc1ccccc1N/C(=N\C#N)N1CCN(C(=O)Cc2cccs2)C(c2ccccc2)C1 (stereo unspecified) | –
220 nM | 51 nM | COc1ccc(CC(=O)N2CCN(C(=Nc3ccccc3C)NC#N)C(c3ccccc3)C2)cc1OC (stereo unspecified) | –
290 nM | 94 nM | COc1ccc(C(=O)N2CCN(C(=Nc3ccccc3C)NC#N)CC2c2ccccc2)cc1OC (stereo unspecified) | –
140 nM | 58 nM | COc1ccc(CC(=O)N2CCN(C(=Nc3ccccc3C)NC#N)CC2c2ccccc2)cc1OC (stereo in doubt; 7) | –
420 nM | 190 nM | COc1ccc(CC(=O)N2CCN(/C(=N/C#N)Nc3ccccc3C)CC2C(C)(C)C)cc1OC (stereo unspecified) | –
560 nM | 60 nM | Cc1ccccc1N/C(=N\C#N)N1CCN(C(=O)Cn2nccc2C)C(c2ccccc2)C1 (stereo unspecified) | –
320 nM | 40 nM | Cc1ccn(CC(=O)N2CCN(/C(=N/C#N)Nc3ccccc3C)CC2c2ccccc2)n1 (stereo unspecified) | –
140 nM | 310 nM | Cc1ccccc1N/C(=N\C#N)N1CCN(C(=O)Cc2ccc3ccccc3c2)C(c2ccccc2)C1 (stereo unspecified) | –
270 nM | 71 nM | Cc1ccccc1N/C(=N\C#N)N1CCN(C(=O)Cc2ccsc2)C(c2ccccc2)C1 (stereo unspecified) | –
610 nM | 410 nM | Cc1cc(CC(=O)N2CCN(/C(=N/C#N)Nc3ccccc3C)CC2c2ccccc2)no1 (stereo unspecified) | –
95 nM | 70 nM | COc1ccc(CCCC(=O)N2CCN(/C(=N/C#N)Nc3ccccc3C)CC2c2ccccc2)cc1OC (stereo unspecified) | –
250 nM | 220 nM | Cc1ccccc1N/C(=N\C#N)N1CCN(C(=O)Cc2ccoc2)C(c2ccccc2)C1 (stereo unspecified) | –
76 nM | 57 nM | COc1ccc(CCC(=O)N2CCN(/C(=N/C#N)Nc3ccccc3C)CC2c2ccccc2)cc1OC (stereo unspecified) | –
